Data as given in paper PMC13095444, “Discovery of RGS2-FBXO44 interaction inhibitors using a cell-based NanoBit assay” (Molecular Pharmacology, 2025).

B1: LgBiT-FBXO44 (natural protein, UniProt Q9H4M3 1-255, looked up)
chain: MAVGNINELPENILLELFTHVPARQLLLNCRLVCSLWRDLIDLVTLWKRKCLREGFITEDWDQPVADWKIFYFLRSLHRNLLHNPCAEEGFEFWSLDVNGGDEWKVEDLSRDQRKEFPNDQVKKYFVTSYYTCLKSQVVDLKAEGYWEELMDTTRPDIEVKDWFAARPDCGSKYQLCVQLLSSAHAPLGTFQPDPATIQQKSDAKWREVSHTFSNYPPGVRYIWFQHGGVDTHYWAGWYGPRVTNSSITIGPPLP
notes: F-box Only Protein 44 (FBXO44); cloned in-house into pBiT1.3-N[CMV/LgBiT/Hygro]; The linker between LgBiT and FBXO44 is not described; also called N-terminally tagged FBXO44; source: HEK-293T, transiently transfected, in live cells; not shown: LgBiT, N-terminal, kept

How the values were obtained:
RGS2-FBXO44 interaction = molecular target: T1, RGS2-FBXO44 interaction (Homo sapiens, UniProt P41220); experiment: RGS2-FBXO44 NanoBit assay (HEK-293T RGS2-SmBiT/LgBiT-FBXO44 stable clone #6); type: cell-based; conditions: for % Inhibition @ 100 μM of RGS2-FBXO44 NanoBit signal: 16–18 hours, fresh powder, luminescence normalized to viability, vs nontreated cells; for IC50: concentrations 500 to 0.01 μM, RLU normalized to viability (RFU), read-out: IC50 (μM), inhibition of RGS2-FBXO44 NanoBit signal
T1 construct: expressed in transfected cells
T1 sequence (P41220 1-211): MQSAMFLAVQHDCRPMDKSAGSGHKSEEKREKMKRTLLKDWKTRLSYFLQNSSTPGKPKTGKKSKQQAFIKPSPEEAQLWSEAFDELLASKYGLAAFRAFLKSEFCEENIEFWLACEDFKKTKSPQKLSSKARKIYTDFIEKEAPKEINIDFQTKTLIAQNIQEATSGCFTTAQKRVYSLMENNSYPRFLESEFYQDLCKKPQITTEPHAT
Method: Nano-Glo Live Cell Substrate (LCS) was diluted 1:50 in HBSS to form a 2× stock, and then, 15 μL was added to each well. Plates were shaken on an orbital shaker at 500 rpm for 5 minutes protected from light and then spun down at 1000 rpm for 30 seconds. Plates were incubated at room temperature for 20 minutes, and then, luminescence was detected on a Synergy Neo2 multimode plate reader.
(§1) HEK-293T-RGS2-FBXO44 NanoBit cells were treated for 16–18 hours with compound at 100 μM. This relatively high concentration was chosen because of the challenging nature of our assay (intracellular PPI inhibition). Parental HEK-293T cells were used as a negative control. […] Based on these criteria, 97 compounds were identified as hits from our primary screen (6.1% initial hit rate). To confirm hits, the same assay was repeated in triplicate, which delivered 34 compounds that reached the threshold for inhibition in at least 2 replicates with <25% cell toxicity (Fig. 2C; Supplemental Table 1), thus rendering a final hit rate of 2.1%.
Fresh powders of 20 compounds were purchased and reassayed for their ability to inhibit the RGS2-FBXO44 NanoBit signal, using the same assay paradigm as in the primary screen (Fig. 3; Table 1). […] Nevertheless, all compounds were confirmed to inhibit the RGS2-FBXO44 NanoBit signal at this high concentration.
We next assessed the concentration-dependent effect of our 20 hits. Compounds were assayed at concentrations ranging from 500 to 0.01 μM. NanoBit luminescence (relative luminescence units) was normalized to viability (RFU) and presented as a percentage of untreated cells.

[1] = system: HEK-293T-RGS2-FBXO44 NanoBit cells; experiment: Cell viability assay (GF-AFC fluorescence) multiplexed with NanoBit; type: cell-based, Human; conditions: for Viability (% of Control) / Cell toxicity (in words): 100 μM; for Viability (% of Control): 16–18 hours
Method: The cells were plated in DMEM without phenol red (Gibco, #21063), 0.1% BSA in a white, tissue culture-treated 384-well plate (Perkin Elmer) at 15,000 cells/well, unless indicated otherwise, and allowed to attach. The plate was centrifuged at 212 × g for 30 seconds to aid in even cell adherence. Compound treatments were initiated 4–5 hours after plating. Following indicated treatment times, media was removed from the plate using BioTek ELx405 plate washer. Additionally, 10 μL of Hank’s Balanced Salt solution (HBSS) with 0.1% BSA was added to each well, followed by 5 μL of glycyl-phenylalanyl-aminofluorocoumarin (GF-AFC; MP Biomedicals) diluted 1:1000 in 100 mM HEPES. Plates were then centrifuged at 212 × g for 30 seconds and then incubated at 37 °C for 30 minutes. Fluorescence was detected on a Synergy Neo2 multimode plate reader (BioTek/Agilent).
Our primary assay using the HEK-293T RGS2-FBXO44 NanoBit cell line was extensively optimized to ensure maximum quality for screening. Coupling a fluorescent cell viability assay with our screen would allow us to rule out cytotoxic compounds while also hopefully reducing outliers from pipetting errors while plating cells. Thus, we multiplexed our NanoBit assay with cell viability using a cell-permeable fluorogenic protease substrate (glycyl-phenylalanyl-aminofluorocoumarin; GF-AFC; [Niles et al, 2007]), which can be combined with a luminescent readout without interfering with the luciferase signal. We previously utilized a similar multiplexing strategy in several screens ([Sjögren et al, 2012]; [Raveh et al, 2014]; [Sjögren et al, 2015]). We assessed and optimized treatment conditions (time, temperature, and reagent volume), cell density, buffer composition, and DMSO tolerance. In addition to the supplied proprietary LCS buffer (Promega), we also tested DMEM, 0.1% BSA, PBS, and HBSS (Supplemental Fig. 1A–C). […] The luminescent signal was stable up to 45 minutes after reagent addition, and we chose to run subsequent assays using 20 minutes of incubation time (Supplemental Fig. 1E). We also observed no effect on either viability or luminescence signal at DMSO concentrations <1% (Data not shown).
as §1

RGS2 protein levels = experiment: PathHunter ProLabel assay of RGS2 protein levels in HEK-293T-RGS2-PL cells; type: cell-based, Human; conditions: 100 μM compound overnight (16–18 hours)
Method: The PathHunter ProLabel assay was run as described previously ([Sjögren et al, 2012]; [Raveh et al, 2014]; [Sjögren et al, 2015]). Briefly, HEK-293T-RGS2-PL cells were plated at 10,000 cells per well in a white, tissue culture-treated 384-well plate (Perkin Elmer) in DMEM without phenol red (#21063; Gibco) and 0.1% BSA. The cells were allowed to attach for 4 hours, followed by treatment with DMSO, 10 μM MG-132, or 100 μM of compounds. Prior to the detection of RGS2 protein levels by the ProLabel assay, a fluorescent viability assay was performed in the same well, as described above. PathHunter ProLabel reagents (DiscoveRx) were prepared according to the manufacturer’s directions and added to the plate, followed by incubation at room temperature for 1 hour. Luminescence corresponding to RGS2-PL protein levels was detected using a Synergy Neo2 multimode plate reader.
Compounds that inhibit the interaction between RGS2 and FBXO44 would protect RGS2 from proteasomal degradation and result in increased RGS2 protein levels. We therefore next assayed our 20 hits for their ability to increase RGS2 protein levels. We first performed western blot analysis of HEK-293T cells transfected with RGS2-HA and FLAG-FBXO44 and treated overnight (16–18 hours) with 100 μM compound, using proteasome inhibitor MG-132 as a positive control (10 μM). […] Although somewhat disappointing, given the limited sensitivity of western blot, we opted to also test the compounds using an alternate assay paradigm. Specifically, we used the PathHunter ProLabel assay (DiscoveRx), an enzyme complementation assay in which a protein of interest is tagged with a 4 kDa part of β-galactosidase (ProLabel; PL). The chemiluminescent signal in the assay correlates with relative levels of the PL-tagged target protein. We previously developed a stable HEK-293T-RGS2-PL cell line that was used in several high-throughput screening campaigns ([Sjögren et al, 2012]; [Raveh et al, 2014]; [Sjögren et al, 2015]). The PathHunter ProLabel assay offers a more quantitative measurement of protein levels, with a larger dynamic range than a western blot. We treated HEK-293T-RGS2-PL cells overnight (16–18 hours) with 100 μM compound and used 10 μM MG-132 as a positive control.
As a further validation of the action of compound 10, we assessed whether the ability to increase RGS2 protein levels was dependent on FBXO44 using the PathHunter ProLabel assay. HEK-293T-RGS2-PL cells transfected with either nontargeting (NT) or FBXO44-targeting siRNA were treated overnight (16–18 hours) with vehicle or compound 10 (100 μM). […] Thus, compound 10 increases RGS2 protein levels through a mechanism that is dependent on FBXO44.

RGS2-SmBiT = molecular target: T2, RGS2-SmBiT (UniProt P41220 1-211); experiment: split reporter (BiFC, NanoBiT); NanoBiT luminescence in live, transiently transfected HEK-293T cells; every combination of RGS2 and FBXO44 NanoBiT constructs; 15,000 cells/well, 2 hours incubation; conditions: partners not purified
T2 construct: Regulator of G protein signaling 2 (RGS2); cloned in-house into pBiT2.3-C[CMV/SmBiT/Blast]; The linker between RGS2 and SmBiT is not described; In the BiBiT construct RGS2-SmBiT and LgBiT-FBXO44 are expressed from one plasmid with a bidirectional CMV promoter; also called C-terminally tagged RGS2; source: HEK-293T, transiently transfected, in live cells; not shown: SmBiT, C-terminal, kept
T2 sequence (looked up): T1 sequence (P41220 1-211)

| Molecule | % Inhibition @ 100 μM of RGS2-FBXO44 NanoBit signal (RGS2-FBXO44 interaction) | IC50 (RGS2-FBXO44 interaction) [µM] | Viability (% of Control) ([1]; fresh powder) | Cell toxicity (in words) [1] | Cell toxicity at 100 μM ([1]; fresh powder) [%] | RGS2 protein levels (PathHunter ProLabel) (RGS2 protein levels) | fold luminescence signal against the opposite tagging (RGS2-LgBiT with SmBiT-FBXO44) (RGS2-SmBiT) [fold] |
| --- | --- | --- | --- | --- | --- | --- | --- |
| CCOc1ccc(S(=O)(=O)N2CCCCCC2)cc1C [Compound 8] | 86.1∗∗∗∗ % | 9.2 | 80.6∗∗∗∗ % of Control |  |  |  |  |
| O=C(Cc1ccccc1Cl)N(CCc1cccs1)C1CCOCC1 [Compound 18] | 51.2∗∗∗∗ % | 122 | 81.5∗∗∗∗ % of Control |  |  |  |  |
| CCCCNC(=O)c1nnn(-c2ccccc2)c1C(C)C [Compound 16] | 75.8∗∗∗∗ % | 54.8 | 93.7 % of Control |  |  |  |  |
| Cc1cc(N2CCCC2)nc(N2CCN(C(=O)c3ccccc3C)CC2)n1 [Compound 3] | 40.6∗∗∗∗ % | 78.9 | 54.1∗∗∗∗ % of Control |  |  |  |  |
| CCOc1ccc(C(=O)Nc2ccc3c(c2)N(C(=O)C(C)C)CCC3)cc1OCC [Compound 5] | 44.5∗∗∗∗ % | 151 | 120.5 % of Control |  |  |  |  |
| Cc1nc(N2CCN(C(=O)c3cccc(N(C)C)c3)CC2)cc(C(F)(F)F)n1 [Compound 2] | 68.0∗∗∗∗ % | 72.2 | 101.9 % of Control |  |  |  |  |
| O=C(N(CCc1ccccc1)Cc1ccccn1)C12CC3CC(CC(C3)C1)C2 [Compound 13] |  |  | 7.5∗∗∗∗ % of Control | almost complete cell toxicity | < 90 |  |  |
| COC1(CNC(=O)CCc2ccccc2)C2CC3CC(C2)CC1C3 (stereo not drawn) [Compound 14] | 70.7∗∗∗∗ % | 67.4 | 93.9 % of Control |  |  |  |  |
| Cc1cccc(C(=O)N2CCN(c3nc(C)cc(N4CCCCC4)n3)CC2)c1 [Compound 1] | 48.9∗∗∗∗ % | 58 | 45.8∗∗∗∗ % of Control | significant toxicity |  | significantly increased RGS2 protein levels |  |
| CCOc1cc(C)c(C)cc1S(=O)(=O)N1CCN(c2ccccc2)CC1 [Compound 11] | 49.6∗∗∗∗ % | 29 | 139.6 % of Control |  |  |  |  |
| O=C(NCC1(O)CCOc2ccccc21)C1(c2ccc(Cl)cc2)CCCC1 (stereo not drawn) [Compound 12] | 32.6∗∗∗∗ % | 5.8 | 116.6 % of Control |  |  |  |  |
| CCc1nc(C)cn1S(=O)(=O)c1cc(OC)c(C)cc1C [Compound 20] | 67.3∗∗∗∗ % | 4.4 | 44.4∗∗∗∗ % of Control |  |  |  |  |
| Cc1cc(C)c(C)c(S(=O)(=O)N2CCCC2)c1C [Compound 7] | 56.5∗∗∗∗ % | 42.1 | 91.7 % of Control |  |  |  |  |
| CCOc1ccc(S(=O)(=O)N(Cc2cccn2C)C2CC2)cc1F [Compound 6] | 36.8∗∗∗∗ % | 25.6 | 116.6 % of Control |  |  |  |  |
| CCCOc1cc(S(=O)(=O)NCC2CCCO2)ccc1Cl (stereo not drawn) [Compound 19] | 74.8∗∗∗∗ % | 39.6 | 85.8∗∗ % of Control |  |  |  |  |
| Cc1cc(C)c(C)c(Cn2c(CCNC(=O)CCC(C)O)nc3ccccc32)c1C (stereo not drawn) [Compound 15] | 50.2∗∗∗∗ % | 20.3 | 68.5∗∗∗∗ % of Control |  |  |  |  |
| O=S(=O)(C1CC1)N1CCCCC(c2ccc(Cl)cc2)C1 (stereo not drawn) [Compound 9] | 74.5∗∗∗∗ % | 9.7 | 103.6 % of Control |  |  |  |  |
| CSc1ccccc1C(=O)NCc1cc(C2CC2)n(C2CCCC2)n1 [Compound 17] | 69.0∗∗∗∗ % | 88.1 | 69.2∗∗∗∗ % of Control |  |  |  |  |
| CCOc1ccc(C(=O)NCc2ccnc(N3CCCCC3)n2)cc1 [Compound 4] | 47.2∗∗∗∗ % | 38.2 | 89.5 % of Control |  |  |  |  |
| B1 |  |  |  |  |  |  | 3.5 |
